# Assay: Phase 1 study of Compound A for NSCLC, safety
# Assay type: in vivo, human
# Method: A first-in-human phase 1 study is ongoing to evaluate the safety of Compound A, including a dose-escalation phase to characterize dose-limiting toxicities (DLTs) (FIG. 6) and determine the recommended phase 2 dose (NCT04820023). Eligibility criteria included advanced-stage NSCLC with an activating EGFR mutation and disease progression on at least one prior EGFR inhibitor. A measurable lesion was required for exploratory evaluation of efficacy. Starting from 20 mg QD (once daily; every day), Compound A dose levels were escalated after evaluating dose-DLT relationships and toxicity probabilities during the first 21 days of dosing.
# All enrolled patients underwent ctDNA analysis (Guardant360, Guardant Health) at screening and every 6 weeks throughout treatment, which was compared to imaging at the same time points. Changes in allelic frequency were calculated as per the proprietary algorithm of Guardant Health (7). Intra-patient dose-escalation to the next dose level was allowed. Plasma samples were collected at prespecified time points at cycle 2, Day 1 following multiple doses (steady state) of Compound A in the dose-escalation cohorts, and the plasma concentrations were determined by a validated LC-MS/MS method with the LLOQ established at 1 ng/mL.
compound,measurement,setting,value
"COc1cc(N2CCC(N3CCN(C)CC3)CC2)ccc1Nc1ncc(Cl)c(Nc2ccccc2NS(C)(=O)=O)n1 [Compound A, N-(2-((5-chloro-2-((2-methoxy-4-(4-(4-methylpiperazin-1-yl)piperidin-1-yl)phenyl)amino)pyrimidin-4-yl)amino)phenyl)methanesulfonamide]","Anorexia, All grade, %",20 mg QD (N = 4),0%
same,"Anorexia, Grade ≥ 3, %",20 mg QD (N = 4),0%
same,"Any TEAE, All grade, %",20 mg QD (N = 4),75%
same,"Any TEAE, Grade ≥ 3, %",20 mg QD (N = 4),25%
same,"Constipation, All grade, %",20 mg QD (N = 4),0%
same,"Constipation, Grade ≥ 3, %",20 mg QD (N = 4),0%
same,"Diarrhea, All grade, %",20 mg QD (N = 4),0%
same,"Diarrhea, Grade ≥ 3, %",20 mg QD (N = 4),0%
same,"Dizziness, All grade, %",20 mg QD (N = 4),0%
same,"Dizziness, Grade ≥ 3, %",20 mg QD (N = 4),0%
same,"Dyspepsia, All grade, %",20 mg QD (N = 4),0%
same,"Dyspepsia, Grade ≥ 3, %",20 mg QD (N = 4),0%
same,"Nausea, All grade, %",20 mg QD (N = 4),0%
same,"Nausea, Grade ≥ 3, %",20 mg QD (N = 4),0%
same,"Neutropenia/Neutrophil count decreased, All grade, %",20 mg QD (N = 4),0%
same,"Neutropenia/Neutrophil count decreased, Grade ≥ 3, %",20 mg QD (N = 4),0%
same,"Platelet count decreased, All grade, %",20 mg QD (N = 4),0%
same,"Platelet count decreased, Grade ≥ 3, %",20 mg QD (N = 4),0%
same,"Serious TEAE, All grade, %",20 mg QD (N = 4),0%
same,"Serious TEAE, Grade ≥ 3, %",20 mg QD (N = 4),0%
same,"TEAE leading to Dose interruption, All grade, %",20 mg QD (N = 4),0%
same,"TEAE leading to Dose interruption, Grade ≥ 3, %",20 mg QD (N = 4),0%
same,"TEAE leading to Dose permanently discontinued, All grade, %",20 mg QD (N = 4),0%
same,"TEAE leading to Dose permanently discontinued, Grade ≥ 3, %",20 mg QD (N = 4),0%
same,"TEAE leading to Dose reduced, All grade, %",20 mg QD (N = 4),0%
same,"TEAE leading to Dose reduced, Grade ≥ 3, %",20 mg QD (N = 4),0%
same,"Vomiting, All grade, %",20 mg QD (N = 4),0%
same,"Vomiting, Grade ≥ 3, %",20 mg QD (N = 4),0%
same,"Anorexia, All grade, %",80 mg QD (N = 3),0%
same,"Anorexia, Grade ≥ 3, %",80 mg QD (N = 3),0%
same,"Any TEAE, All grade, %",80 mg QD (N = 3),67%
same,"Any TEAE, Grade ≥ 3, %",80 mg QD (N = 3),0%
same,"Constipation, All grade, %",80 mg QD (N = 3),33%
same,"Constipation, Grade ≥ 3, %",80 mg QD (N = 3),0%
same,"Diarrhea, All grade, %",80 mg QD (N = 3),0%
same,"Diarrhea, Grade ≥ 3, %",80 mg QD (N = 3),0%
same,"Dizziness, All grade, %",80 mg QD (N = 3),0%
same,"Dizziness, Grade ≥ 3, %",80 mg QD (N = 3),0%
same,"Dyspepsia, All grade, %",80 mg QD (N = 3),33%
same,"Dyspepsia, Grade ≥ 3, %",80 mg QD (N = 3),0%
same,"Nausea, All grade, %",80 mg QD (N = 3),0%
same,"Nausea, Grade ≥ 3, %",80 mg QD (N = 3),0%
same,"Neutropenia/Neutrophil count decreased, All grade, %",80 mg QD (N = 3),0%
same,"Neutropenia/Neutrophil count decreased, Grade ≥ 3, %",80 mg QD (N = 3),0%
same,"Platelet count decreased, All grade, %",80 mg QD (N = 3),0%
same,"Platelet count decreased, Grade ≥ 3, %",80 mg QD (N = 3),0%
same,"Serious TEAE, All grade, %",80 mg QD (N = 3),0%
same,"Serious TEAE, Grade ≥ 3, %",80 mg QD (N = 3),0%
same,"TEAE leading to Dose interruption, All grade, %",80 mg QD (N = 3),0%
same,"TEAE leading to Dose interruption, Grade ≥ 3, %",80 mg QD (N = 3),0%
same,"TEAE leading to Dose permanently discontinued, All grade, %",80 mg QD (N = 3),0%
same,"TEAE leading to Dose permanently discontinued, Grade ≥ 3, %",80 mg QD (N = 3),0%
same,"TEAE leading to Dose reduced, All grade, %",80 mg QD (N = 3),0%
same,"TEAE leading to Dose reduced, Grade ≥ 3, %",80 mg QD (N = 3),0%
same,"Vomiting, All grade, %",80 mg QD (N = 3),33%
same,"Vomiting, Grade ≥ 3, %",80 mg QD (N = 3),0%
same,"Anorexia, All grade, %",160 mg QD (N = 4),0%
same,"Anorexia, Grade ≥ 3, %",160 mg QD (N = 4),0%
same,"Any TEAE, All grade, %",160 mg QD (N = 4),75%
same,"Any TEAE, Grade ≥ 3, %",160 mg QD (N = 4),0%
same,"Constipation, All grade, %",160 mg QD (N = 4),25%
same,"Constipation, Grade ≥ 3, %",160 mg QD (N = 4),0%
same,"Diarrhea, All grade, %",160 mg QD (N = 4),0%
same,"Diarrhea, Grade ≥ 3, %",160 mg QD (N = 4),0%
same,"Dizziness, All grade, %",160 mg QD (N = 4),0%
same,"Dizziness, Grade ≥ 3, %",160 mg QD (N = 4),0%
same,"Dyspepsia, All grade, %",160 mg QD (N = 4),0%
same,"Dyspepsia, Grade ≥ 3, %",160 mg QD (N = 4),0%
same,"Nausea, All grade, %",160 mg QD (N = 4),25%
same,"Nausea, Grade ≥ 3, %",160 mg QD (N = 4),0%
same,"Neutropenia/Neutrophil count decreased, All grade, %",160 mg QD (N = 4),0%
same,"Neutropenia/Neutrophil count decreased, Grade ≥ 3, %",160 mg QD (N = 4),0%
same,"Platelet count decreased, All grade, %",160 mg QD (N = 4),0%
same,"Platelet count decreased, Grade ≥ 3, %",160 mg QD (N = 4),0%
same,"Serious TEAE, All grade, %",160 mg QD (N = 4),25%
same,"Serious TEAE, Grade ≥ 3, %",160 mg QD (N = 4),0%
same,"TEAE leading to Dose interruption, All grade, %",160 mg QD (N = 4),0%
same,"TEAE leading to Dose interruption, Grade ≥ 3, %",160 mg QD (N = 4),0%
same,"TEAE leading to Dose permanently discontinued, All grade, %",160 mg QD (N = 4),0%
same,"TEAE leading to Dose permanently discontinued, Grade ≥ 3, %",160 mg QD (N = 4),0%
same,"TEAE leading to Dose reduced, All grade, %",160 mg QD (N = 4),0%
same,"TEAE leading to Dose reduced, Grade ≥ 3, %",160 mg QD (N = 4),0%
same,"Vomiting, All grade, %",160 mg QD (N = 4),25%
same,"Vomiting, Grade ≥ 3, %",160 mg QD (N = 4),0%
same,Treatment-related adverse events of grade ≥3,320 mg QD,occurred
same,"Anorexia, All grade, %",320 mg QD (N = 3),33%
same,"Anorexia, Grade ≥ 3, %",320 mg QD (N = 3),0%

# Reference: patent publication US20230330112A1, “COMPOSITION AND TREATMENT FOR CANCER WITH MUTATIONS” (BRIDGE BIOTHERAPEUTICS, INC., priority 2022, published 2023)
